{
  "source": "patent US7560252B2",
  "about": "“Borrelidin-producing polyketide synthase and its use” (priority 2002, dated 2009)",
  "key": {"[1]": {"test_system": "mouse colon adenocarcinoma cells", "settings": "subtoxic dose; cited from earlier work"}, "[2]": {"test_system": "Lewis lung adenocarcinoma", "settings": "cited from earlier work"}, "[3]": {"test_system": "endothelial cell proliferation and endothelial capillary formation", "settings": "with respect to borrelidin; cited from earlier work"}, "[4]": {"test_system": "B16-BL6 melanoma cells", "settings": "same dosage (1.8 mg/kg); cited from earlier work"}, "[5]": {"test_system": "WiDr cell lines of human colon cancer", "settings": "JP 9-227,549 and JP 8-173,167; cited from earlier work"}, "[6]": {"test_system": "WiDr cells", "settings": "1.8 mg/kg by intraperitoneal injection; higher degree than TNP-470; cited from earlier work"}, "[7]": {"test_system": "protein synthesis", "settings": "cited from earlier work"}, "[8]": {"test_system": "human umbilical vein endothelial cells (HUVEC)", "settings": "cited from earlier work"}, "[9]": {"test_system": "S. albus J1074/pEM4A", "assay": "soaked disk bioassay, control strain", "format": "cell-based, Streptomyces albus J1074", "settings": "disks with borrelidin at 100 & 200 μg/ml, Bennett's agar, overnight at 30° C.", "source_text": "The self-resistance of S. parvulus strains to borrelidin is most probably due to the product of borO, which encodes a threonyl tRNA synthetase homologue. Threonyl-tRNA synthetase is the molecular target of borrelidin in sensitive strains (Paetz & Ness, 1973). It is predicted that BorO is resistant to the action of borrelidin, and acts to produce threonyl-tRNAs in cells that make borrelidin, effectively complementing the normal threonyl-tRNA which are inhibited. To verify this hypothesis borO was amplified by PCR and cloned in to the expression vector pEM4A, which puts borO under the control of the strong constitutive promoter ermE* (example 26). The resulting vector pborOR was then transformed into the borrelidin-sensitive strain Streptomyces albus J1074 (Chater & Wilde, 1980).\nResistance to borrelidin was assayed on Bennett's agar containing apramycin at 25 μg/ml. Spores of S. albus J1074/pborOR and the control S. albus J1074/pEM4A were spread onto plates and then disks containing borrelidin at 100 & 200 μg/ml were laid upon the lawn of spores and incubated overnight at 30° C."}, "[10]": {"test_system": "PC-3 cell lines of human prostate cancer", "settings": "JP 9-227,549 and JP 8-173,167; cited from earlier work"}, "[11]": {"test_system": "caspase-3", "settings": "cited from earlier work"}, "[12]": {"test_system": "haploid and diploid cells", "settings": "at concentrations that do not affect gross protein biosynthesis; cited from earlier work"}, "[13]": {"test_system": "caspase-8", "settings": "cited from earlier work"}, "[14]": {"test_system": "capillary tube formation", "settings": "rat aorta matrix culture model; cited from earlier work"}},
  "data": [
    {"compound": "CC1CC(C)CC(C)C(O)CC(=O)OC(C2CCCC2C(=O)NCc2cccnc2)C(C#N)=CC=CCC(O)C(C)C1", "note": "(stereo not drawn) [borrelidin-(3-picolylamide)]", "values": [
      {"measurement": "metastasis-forming ability of cells transplanted into mouse spleen", "setting": "[1]", "result": "considerably decreased"},
      {"measurement": "increase of micrometastases", "setting": "[2]; rats, intraperitoneal and per os administration at subtoxic doses", "result": "inhibit very considerably"}
    ]},
    {"compound": "CC1CC(C)CC(C)C(O)C(C#N)=CC=CCC(C2CCCC2C(=O)OCCc2ccccn2)OC(=O)CC(O)C(C)C1", "note": "(stereo not drawn) [borrelidin-(2-pyridyl)-ethyl ester]", "values": [
      {"measurement": "selectivity index, capillary formation inhibitory activity versus cell proliferation", "setting": "[3]", "result": 7.5, "unit": "fold"}
    ]},
    {"compound": "C[C@@H]1C[C@H](C)C[C@H](C)[C@@H](O)CC(=O)O[C@H]([C@@H]2CCC[C@H]2C(=O)OCCN2CCOCC2)C/C=C/C=C(/C#N)[C@H](O)[C@@H](C)C1", "note": "[borrelidin-morpholinoethyl ester]", "values": [
      {"measurement": "selectivity index, capillary formation inhibitory activity versus cell proliferation", "setting": "[3]", "result": 60, "unit": "fold"}
    ]},
    {"compound": "C[C@@H]1C[C@H](C)C[C@H](C)[C@@H](O)CC(=O)O[C@H]([C@@H]2CCC[C@H]2C(=O)O)C/C=C/C=C(/C#N)[C@H](O)[C@@H](C)C1", "note": "[Borrelidin]", "values": [
      {"measurement": "inhibition of the formation of spontaneous lung metastases", "setting": "[4]", "result": "effective"},
      {"measurement": "propagation of metastatic nodules", "setting": "[2]; after removal of the primary tumour", "result": "weakly inhibited"},
      {"measurement": "effectiveness against WiDr cell lines", "setting": "[5]", "result": "effective"},
      {"measurement": "increment of vascular volume induced by WiDr cells", "setting": "[6]", "result": "significantly reduce the increment of vascular volume"},
      {"measurement": "IC50 for anti-angiogenesis activity lower than for inhibition of protein synthesis", "setting": "[7]; 0.4 ng/ml versus 20 ng/ml", "result": 50, "unit": "fold"},
      {"measurement": "IC50 inhibition of protein synthesis", "setting": "[7]; cultured rat cells", "result": 20, "unit": "ng/mL"},
      {"measurement": "IC50 anti-proliferative activity towards HUVEC", "setting": "[8]; cell growth assay", "result": 6, "unit": "ng/mL"},
      {"measurement": "anti-proliferative activity weaker than the anti-angiogenesis activity", "setting": "[8]; measured in the same medium", "result": 15, "unit": "fold"},
      {"measurement": "haloes of growth inhibition", "setting": "[9]", "result": "Haloes indicating inhibition of growth were observed"},
      {"measurement": "effectiveness against PC-3 cell lines", "setting": "[10]", "result": "effective"},
      {"measurement": "caspase-3 activation", "setting": "[11]", "result": "activate"},
      {"measurement": "cell cycle arrest in late G1 phase", "setting": "[12]", "result": "arrests both haploid and diploid cells in late G1 phase"},
      {"measurement": "caspase-8 activation", "setting": "[13]", "result": "activate"},
      {"measurement": "IC50", "setting": "[14]", "result": 0.8, "unit": "nM"},
      {"measurement": "IC50 capillary tube formation", "setting": "[14]", "result": 0.4, "unit": "ng/mL"}
    ]},
    {"compound": "C[C@@H]1C[C@H](C)C[C@H](C)[C@@H](O)CC(=O)O[C@H]([C@@H]2CCC[C@H]2C(=O)NCCN2CCOCC2)C/C=C/C=C(/C#N)[C@H](O)[C@@H](C)C1", "note": "[borrelidin-morpholinoethyl amide]", "values": [
      {"measurement": "selectivity index, capillary formation inhibitory activity versus cell proliferation", "setting": "[3]", "result": 6, "unit": "fold"}
    ]},
    {"compound": "borrelidin-amide", "values": [
      {"measurement": "selectivity index, capillary formation inhibitory activity versus cell proliferation", "setting": "[3]", "result": 37, "unit": "fold"}
    ]}
  ]
}
